# Measured values taken from patent US20250333407A1, “Compounds and Their Use for Treatment of Hemoglobinopathies” (Bristol-Myers Squibb Company, priority 2024, published 2025).
# Assays:
# Assay type in all cases: cell-based
# ZBTB7A = target: T1, ZBTB7A (Homo sapiens, UniProt O95365+Q96SW2); assay: HUDEP-2 ZBTB7A HiBiT degradation assay; details: HiBiT-tagged ZBTB7A degradation in HUDEP-2 cells, 24 hours of treatment; read-out: ZBTB7A EC50
# T1 construct: HUDEP-2 cells engineered to express a HiBiT tag in either the WIZ (Widely interspaced zinc finger) or ZBTB7A
# T1 sequence (O95365 whole entry): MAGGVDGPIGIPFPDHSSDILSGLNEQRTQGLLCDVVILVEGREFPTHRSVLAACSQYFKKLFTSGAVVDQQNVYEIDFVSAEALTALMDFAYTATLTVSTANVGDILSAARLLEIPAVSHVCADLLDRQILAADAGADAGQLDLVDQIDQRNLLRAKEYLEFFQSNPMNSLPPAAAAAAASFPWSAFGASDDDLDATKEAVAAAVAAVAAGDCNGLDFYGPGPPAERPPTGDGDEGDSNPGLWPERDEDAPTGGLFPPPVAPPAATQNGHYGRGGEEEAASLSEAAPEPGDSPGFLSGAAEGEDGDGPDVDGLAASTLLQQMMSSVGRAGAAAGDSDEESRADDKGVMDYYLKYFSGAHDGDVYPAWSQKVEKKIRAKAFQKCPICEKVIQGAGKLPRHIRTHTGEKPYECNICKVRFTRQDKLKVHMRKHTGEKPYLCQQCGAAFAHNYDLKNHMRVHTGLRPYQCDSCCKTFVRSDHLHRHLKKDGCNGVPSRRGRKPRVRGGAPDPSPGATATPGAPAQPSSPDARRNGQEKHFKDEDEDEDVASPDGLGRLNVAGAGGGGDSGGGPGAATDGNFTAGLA
# T1 sequence (Q96SW2 whole entry): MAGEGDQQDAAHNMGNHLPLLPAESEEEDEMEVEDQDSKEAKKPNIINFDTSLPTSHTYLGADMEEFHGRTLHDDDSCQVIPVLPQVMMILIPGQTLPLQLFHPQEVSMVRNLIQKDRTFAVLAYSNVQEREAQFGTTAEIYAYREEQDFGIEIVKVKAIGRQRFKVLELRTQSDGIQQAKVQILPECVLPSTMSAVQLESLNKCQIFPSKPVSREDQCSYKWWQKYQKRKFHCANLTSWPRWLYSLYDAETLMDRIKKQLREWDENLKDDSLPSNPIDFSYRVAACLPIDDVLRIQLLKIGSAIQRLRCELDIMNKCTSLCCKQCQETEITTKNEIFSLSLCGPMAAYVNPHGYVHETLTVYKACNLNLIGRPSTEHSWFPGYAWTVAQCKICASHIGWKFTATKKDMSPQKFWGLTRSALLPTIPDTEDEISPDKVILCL
# T1 sequence (Q16531 whole entry partner): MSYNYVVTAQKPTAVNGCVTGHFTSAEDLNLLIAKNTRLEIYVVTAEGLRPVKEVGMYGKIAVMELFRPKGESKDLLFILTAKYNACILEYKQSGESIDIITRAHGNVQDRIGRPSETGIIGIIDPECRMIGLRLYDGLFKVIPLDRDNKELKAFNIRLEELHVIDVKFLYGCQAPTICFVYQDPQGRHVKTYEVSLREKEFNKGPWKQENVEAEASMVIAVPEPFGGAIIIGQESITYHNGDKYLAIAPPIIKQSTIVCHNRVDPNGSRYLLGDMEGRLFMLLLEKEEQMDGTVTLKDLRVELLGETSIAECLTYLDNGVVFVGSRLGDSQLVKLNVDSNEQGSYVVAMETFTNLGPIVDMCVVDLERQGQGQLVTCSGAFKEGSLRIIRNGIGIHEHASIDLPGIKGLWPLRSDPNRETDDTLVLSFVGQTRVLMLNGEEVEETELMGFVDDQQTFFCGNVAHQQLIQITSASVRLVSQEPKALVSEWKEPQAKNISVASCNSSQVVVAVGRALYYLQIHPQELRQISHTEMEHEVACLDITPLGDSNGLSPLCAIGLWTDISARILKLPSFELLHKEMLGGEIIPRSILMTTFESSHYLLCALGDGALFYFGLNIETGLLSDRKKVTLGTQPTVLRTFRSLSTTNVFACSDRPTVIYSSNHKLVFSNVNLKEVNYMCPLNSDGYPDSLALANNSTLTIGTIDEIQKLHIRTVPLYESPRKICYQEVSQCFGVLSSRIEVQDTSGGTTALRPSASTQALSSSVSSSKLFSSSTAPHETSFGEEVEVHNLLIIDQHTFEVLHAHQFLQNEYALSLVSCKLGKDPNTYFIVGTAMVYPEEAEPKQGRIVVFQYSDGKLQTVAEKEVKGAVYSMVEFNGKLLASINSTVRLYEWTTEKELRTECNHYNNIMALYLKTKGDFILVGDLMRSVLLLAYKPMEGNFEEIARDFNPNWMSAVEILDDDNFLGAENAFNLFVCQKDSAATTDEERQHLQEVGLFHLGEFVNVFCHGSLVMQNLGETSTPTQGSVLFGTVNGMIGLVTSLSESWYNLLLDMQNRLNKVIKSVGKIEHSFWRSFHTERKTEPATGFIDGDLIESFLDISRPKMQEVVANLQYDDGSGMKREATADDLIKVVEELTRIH
# Method in brief: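 HiBiT-tagged HUDEP-2 cells were pre-cultured 48 h in IMDM with EPO, SCF, doxycycline and 5% human plasma, then exposed to compounds at 1.0×10^6 cells/ml for 24 h at 37 °C. Nano-Glo HiBiT lytic luminescence, normalised to DMSO over 10 concentrations, gave EC50 and Y-min.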
# WIZ = target: T2, WIZ (Homo sapiens, UniProt O95785+Q96SW2); assay: HUDEP-2 WIZ HiBiT degradation assay; details: HiBiT-tagged WIZ degradation in HUDEP-2 cells, 24 hours of treatment; read-out: WIZ EC50
# T2 construct: HUDEP-2 cells engineered to express a HiBiT tag in either the WIZ (Widely interspaced zinc finger) or ZBTB7A
# T2 sequence (O95785 whole entry): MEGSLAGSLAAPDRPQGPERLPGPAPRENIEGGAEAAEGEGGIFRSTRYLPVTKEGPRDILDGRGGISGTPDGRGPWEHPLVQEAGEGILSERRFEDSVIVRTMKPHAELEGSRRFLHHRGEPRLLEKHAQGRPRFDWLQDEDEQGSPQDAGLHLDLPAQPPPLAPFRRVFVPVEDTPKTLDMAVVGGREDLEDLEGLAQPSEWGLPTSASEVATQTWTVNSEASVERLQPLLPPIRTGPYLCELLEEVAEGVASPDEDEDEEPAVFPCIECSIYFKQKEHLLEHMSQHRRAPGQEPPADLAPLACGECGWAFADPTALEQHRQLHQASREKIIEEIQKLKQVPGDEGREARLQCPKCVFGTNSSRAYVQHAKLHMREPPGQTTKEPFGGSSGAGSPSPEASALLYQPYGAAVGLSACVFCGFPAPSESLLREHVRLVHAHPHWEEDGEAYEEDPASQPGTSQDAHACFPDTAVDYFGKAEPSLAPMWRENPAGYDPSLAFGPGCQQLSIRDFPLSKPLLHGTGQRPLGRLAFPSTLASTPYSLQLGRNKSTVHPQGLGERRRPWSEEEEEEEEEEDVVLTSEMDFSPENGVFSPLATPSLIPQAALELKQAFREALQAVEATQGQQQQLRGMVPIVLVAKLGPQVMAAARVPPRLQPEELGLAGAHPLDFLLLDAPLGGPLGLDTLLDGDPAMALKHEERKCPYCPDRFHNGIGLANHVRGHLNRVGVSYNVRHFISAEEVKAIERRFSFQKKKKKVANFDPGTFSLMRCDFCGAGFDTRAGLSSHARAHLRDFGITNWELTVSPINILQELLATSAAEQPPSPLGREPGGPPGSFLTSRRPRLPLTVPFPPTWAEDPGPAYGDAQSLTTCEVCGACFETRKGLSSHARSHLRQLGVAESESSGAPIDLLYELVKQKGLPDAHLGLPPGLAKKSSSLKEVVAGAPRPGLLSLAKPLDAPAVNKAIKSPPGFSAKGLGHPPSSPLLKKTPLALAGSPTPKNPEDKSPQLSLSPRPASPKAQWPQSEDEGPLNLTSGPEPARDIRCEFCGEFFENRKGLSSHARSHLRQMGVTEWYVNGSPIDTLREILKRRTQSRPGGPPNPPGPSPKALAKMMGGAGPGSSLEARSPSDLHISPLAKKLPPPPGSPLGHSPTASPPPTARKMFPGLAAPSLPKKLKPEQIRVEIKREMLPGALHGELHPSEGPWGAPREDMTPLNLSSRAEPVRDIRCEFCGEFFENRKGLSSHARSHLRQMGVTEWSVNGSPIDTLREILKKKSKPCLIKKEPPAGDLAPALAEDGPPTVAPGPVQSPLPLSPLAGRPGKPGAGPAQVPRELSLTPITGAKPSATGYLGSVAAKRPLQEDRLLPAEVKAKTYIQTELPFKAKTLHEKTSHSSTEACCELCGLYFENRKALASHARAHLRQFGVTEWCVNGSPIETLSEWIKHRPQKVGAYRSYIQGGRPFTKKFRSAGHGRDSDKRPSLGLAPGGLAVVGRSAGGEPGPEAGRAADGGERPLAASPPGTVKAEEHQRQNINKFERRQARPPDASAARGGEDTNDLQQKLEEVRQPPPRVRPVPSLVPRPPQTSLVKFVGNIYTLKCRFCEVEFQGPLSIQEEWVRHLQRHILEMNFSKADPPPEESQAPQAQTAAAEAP
# T2 sequence (Q96SW2 whole entry): as the sequence (Q96SW2 whole entry) above
# T2 sequence (Q16531 whole entry partner): as the sequence (Q16531 whole entry partner) above
# Method in brief: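 HiBiT-tagged HUDEP-2 cells at 1.0×10^6 cells/ml in SFEM II with SCF, EPO, dexamethasone and doxycycline, treated 24 h at 37 °C with a 10-point series ([…]). Luminescence after HiBiT lytic detection, normalized to DMSO; EC50 and Y-min from fitted curves.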
# HbF = HbF HiBiT induction assay in HUDEP-2 cells; details: HUDEP-2 cells with HiBiT tag in HBG1/2, 72 hours of treatment; area under the dose response curve, higher AUC = greater HbF induction
# Method in brief: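 HUDEP-2 cells carrying a HiBiT tag on HBG1/2 were exposed to compounds for 72 h at 37° C, 5% CO2, in IMDM with EPO, hSCF, DOX, transferrin, insulin, heparin and 5% human plasma. HiBiT luminescence was read after lytic detection; HbF induction is expressed as dose-response AUC, alongside EC50 and Ymax.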
Compound,DC50 (ZBTB7A) [nM],DC50 (WIZ) [nM],HBF AUC (HbF)
"CN1C(=O)CCc2cc(C3CCN(C(=O)C4CC4)CC3)c(Nc3cccc4c3C(=O)N(C3CCC(=O)NC3=O)C4=O)cc21 (stereo not drawn) [Compound 93, 4-((6-(1-(cyclopropanecarbonyl)piperidin-4-yl)-1-methyl-2-oxo-1,2,3,4-tetrahydroquinolin-7-yl)amino)-2-(2,6-dioxopiperidin-3-yl)isoindoline-1,3-dione]",15,4,++ (++ = 100 ≤ AUC < 150)
"C=CN1C(=O)CCc2cc(-c3ccnc(C)c3)c(Nc3cccc4c3C(=O)N(C3CCC(=O)NC3=O)C4=O)cc21 (stereo not drawn) [Compound 94, 2-(2,6-dioxopiperidin-3-yl)-4-((6-(2-methylpyridin-4-yl)-2-oxo-1-vinyl-1,2,3,4-tetrahydroquinolin-7-yl)amino)isoindoline-1,3-dione]",28,17,+ (+ = 15 ≤ AUC < 100)
"Cc1cc(-c2nc3c(cc2Nc2cccc4c2C(=O)N([C@H]2CCC(=O)NC2=O)C4=O)N(C)C(=O)CC3)ccn1 [Compound 95, (S)-2-(2,6-dioxopiperidin-3-yl)-4-((5-methyl-2-(2-methylpyridin-4-yl)-6-oxo-5,6,7,8-tetrahydro-1,5-naphthyridin-3-yl)amino)isoindoline-1,3-dione]",256,89,+ (+ = 15 ≤ AUC < 100)
"Cc1cc(-c2cc3c(cc2Nc2cccc4c2C(=O)N(C2CCC(=O)NC2=O)C4=O)N(C)C(=O)CC3C)ccn1 (stereo not drawn) [Compound 96, 4-((1,4-dimethyl-6-(2-methylpyridin-4-yl)-2-oxo-1,2,3,4-tetrahydroquinolin-7-yl)amino)-2-(2,6-dioxopiperidin-3-yl)isoindoline-1,3-dione]",13,11,++ (++ = 100 ≤ AUC < 150)
